Test results published in patent publication US12351570B2 (MERCK PATENT GMBH, priority 2018, dated 2025).

Tested on: MDA-MB-231 cells
Assay: Extracellular lactate production inhibition after 4 h, MDA-MB-231
Settings: Homo sapiens, MDA-MB-231

Structure (SMILES) | IC50 [nM]
COc1cc(C(=O)O)ncc1C#Cc1cc(Br)c(F)cc1NS(=O)(=O)c1ccc(OC)c2cccnc12 [Compound 358, 5-{2-[5-bromo-4-fluoro-2-(5-methoxyquinoline-8-sulfonamido)phenyl]ethynyl}-4-methoxypyridine-2-carboxylic acid] | 1 to 10
O=C(O)c1ccc(C#Cc2ccccc2NS(=O)(=O)c2cccc3ccccc23)cn1 [Compound 70, 5-{2-[2-(naphthalene-1-sulfonamido)phenyl]ethynyl}pyridine-2-carboxylic acid] | 100 to 1000
O=C(O)c1ccc(C#Cc2ccccc2NS(=O)(=O)c2ccc(-c3ccccc3)cc2)cn1 [Compound 291, 5-[2-(2-{[1,1′-biphenyl]-4-sulfonamido}phenyl)ethynyl]pyridine-2-carboxylic acid] | 10 to 100
COc1ccc(S(=O)(=O)Nc2ccccc2C#Cc2ccc(C(=O)O)nc2C)c2ncccc12 [Compound 130, 5-{2-[2-(5-methoxyquinoline-8-sulfonamido)phenyl]ethynyl}-6-methylpyridine-2-carboxylic acid] | 1000 to 100000
Cc1ccc2cccnc2c1S(=O)(=O)Nc1cc(Cl)c(Cl)cc1C#Cc1ccc(C(=O)O)nc1 [Compound 204, 5-{2-[4,5-dichloro-2-(7-methylquinoline-8-sulfonamido)phenyl]ethynyl}pyridine-2-carboxylic acid] | 10 to 100
Cc1ccc2cccnc2c1S(=O)(=O)Nc1ccccc1C#Cc1cnc(C(=O)O)c(CO)c1 [Compound 399, 3-(hydroxymethyl)-5-{2-[2-(7-methylquinoline-8-sulfonamido)phenyl]ethynyl}pyridine-2-carboxylic acid] | 100 to 1000
O=C(O)c1c(F)cc(C#Cc2ccccc2NS(=O)(=O)c2ccc3ccccc3c2)cc1F [Compound 29, 2,6-difluoro-4-{2-[2-(naphthalene-2-sulfonamido)phenyl]ethynyl}benzoic acid] | 1000 to 100000
CN(C)c1ccnc2c(S(=O)(=O)Nc3ccccc3C#Cc3ccc(C(=O)O)nc3)cccc12 [Compound 420, 5-[2-(4-Dimethylamino-quinoline-8-sulfonylamino)-phenylethynyl]-pyridine-2-carboxylic acid] | 1000 to 100000
CNc1cc(C#Cc2ccccc2NS(=O)(=O)c2ccc(OC)c(C)c2C)cnc1C(=O)O [Compound 378, 5-{2-[2-(4-methoxy-2,3-dimethyl-benzenesulfonamido)phenyl]ethynyl}-3-(methylamino)pyridine-2-carboxylic acid] | 10 to 100
O=C(O)c1ccc(C#Cc2ccccc2NS(=O)(=O)c2ccc3c(c2)CCCC3)cc1 [Compound 7, 4-{2-[2-(5,6,7,8-tetrahydronaphthalene-2-sulfonamido)phenyl]ethynyl}benzoic acid] | 100 to 1000
COc1cc(C#Cc2ccccc2NS(=O)(=O)c2c(C)ccc3cccnc23)cnc1C(=O)O [Compound 171, 3-methoxy-5-{2-[2-(7-methylquinoline-8-sulfonamido)phenyl]ethynyl}pyridine-2-carboxylic acid] | 100 to 1000
COC(=O)c1ccc(C#Cc2ccccc2NS(=O)(=O)c2ccc3c(c2)Cc2ccccc2-3)cn1 [Compound 132, methyl 5-{2-[2-(9H-fluorene-2-sulfonamido)phenyl]ethynyl}pyridine-2-carboxylate] | 10 to 100
Cc1c(S(=O)(=O)Nc2ccccc2C#Cc2ccc(C(=O)O)cc2)sc2ccc(Cl)cc12 [Compound 22, 4-{2-[2-(5-chloro-3-methyl-1-benzothiophene-2-sulfonamido)phenyl]ethynyl}benzoic acid] | 100 to 1000
O=C(O)c1ccc(C#Cc2ccccc2NS(=O)(=O)c2cccc3cc(Cl)cnc23)cc1 [Compound 270, 4-[2-(3-Chloro-quinoline-8-sulfonyl-amino)-phenylethynyl]-benzoic acid] | 100 to 1000
COc1ccc(S(=O)(=O)Nc2ccc(C)cc2C#Cc2ccc(C(=O)O)nc2)c(C)c1C [Compound 413, 5-{2-[2-(4-methoxy-2,3-dimethylbenzenesulfonamido)-5-methylphenyl]ethynyl}pyridine-2-carboxylic acid] | 10 to 100
COCCOC(=O)c1cc(OC)c(C#Cc2ccccc2NS(=O)(=O)c2c(C)ccc3cccnc23)cn1 [Compound 412, 2-methoxyethyl 4-methoxy-5-{2-[2-(7-methylquinoline-8-sulfonamido)phenyl]ethynyl}pyridine-2-carboxylate] | 10 to 100
Cn1c2ccccc2c2ccc(S(=O)(=O)Nc3ccccc3C#Cc3ccc(C(=O)O)nc3)cc21 [Compound 150, 5-{2-[2-(9-methyl-9H-carbazole-2-sulfonamido)phenyl]ethynyl}pyridine-2-carboxylic acid] | 100 to 1000
COC(=O)c1ncc(C#Cc2cc(F)ccc2NS(=O)(=O)c2ccc(-c3ccccc3)cc2)cc1C [Compound 313, methyl 5-[2-(2-{[1,1′-biphenyl]-4-sulfonamido}-5-fluorophenyl)ethynyl]-3-methylpyridine-2-carboxylate] | 1000 to 100000
Cc1ccc2cccnc2c1S(=O)(=O)Nc1ccccc1C#Cc1ccc(C(=O)N2CCCCC2)nc1 [Compound 385, 7-Methyl-quinoline-8-sulfonic acid {2-[6-(piperidine-1-carbonyl)-pyridin-3-ylethynyl]-phenyl}-amide] | 1000 to 100000

Structure (SMILES) | IC50 [nM]
COc1ccccc1-c1cccc(S(=O)(=O)Nc2ccccc2C#Cc2ccc(C(=O)O)nc2)c1 [Compound 114, 5-[2-(2-{2′-methoxy-[1,1′-biphenyl]-3-sulfonamido}phenyl)ethynyl]pyridine-2-carboxylic acid] | 100 to 1000
O=C(O)c1ccc(C#Cc2ccccc2NS(=O)(=O)c2cc3ccccc3o2)cn1 [Compound 89, 5-{2-[2-(1-benzofuran-2-sulfonamido)phenyl]ethynyl}pyridine-2-carboxylic acid] | 1000 to 100000
CC(C)Oc1ccc(S(=O)(=O)Nc2ccccc2C#Cc2ccc(C(=O)O)nc2)c2ncccc12 [Compound 339, 5-(2-{2-[5-(propan-2-yloxy)quinoline-8-sulfonamido]phenyl}ethynyl)pyridine-2-carboxylic acid] | 10 to 100
CNC(=O)c1ccc(C#Cc2ccccc2NS(=O)(=O)c2ccc(OC)c3cccnc23)cn1 [Compound 156, 5-{2-[2-(5-methoxyquinoline-8-sulfonamido)phenyl]ethynyl}-N-methylpyridine-2-carboxamide] | 1000 to 100000
O=C(O)c1ccc(C#Cc2ccccc2NS(=O)(=O)c2ccc3c(c2)[nH]c2ccccc23)cn1 [Compound 124, 5-{2-[2-(9H-carbazole-2-sulfonamido)phenyl]ethynyl}pyridine-2-carboxylic acid] | 100 to 1000
O=C(O)c1ccc(C#Cc2ccccc2NS(=O)(=O)c2ccc3occc3c2)cn1 [Compound 297, 5-{2-[2-(1-benzofuran-5-sulfonamido)phenyl]ethynyl}pyridine-2-carboxylic acid] | 1000 to 100000
Cc1cccc(S(C)(=O)=Nc2ccccc2C#Cc2ccc(C(=O)O)nc2)c1 (centres unmarked) [Compound 435, 5-[2-(2-{[methyl(3-methylphenyl)oxo-λ6-sulfanylidene]amino}phenyl)ethynyl] pyridine-2-carboxylic acid] | 1000 to 100000
CS(=O)(=Nc1ccccc1C#Cc1ccc(C(=O)O)nc1)c1ccccc1 (centres unmarked) [Compound 424, 5-[2-(2-{[methyl(oxo)phenyl-λ6-sulfanylidene]amino}phenyl)ethynyl] pyridine-2-carboxylic acid] | 1000 to 100000
O=C(O)c1ccc(C#Cc2c(F)cccc2NS(=O)(=O)c2cccc3cccnc23)cn1 [Compound 101, 5-{2-[2-fluoro-6-(quinoline-8-sulfonamido)phenyl]ethynyl}pyridine-2-carboxylic acid] | 1000 to 100000
COc1ccc(C#Cc2ccc(C(=O)O)nc2)c(NS(=O)(=O)c2ccc(OC)c3cccnc23)c1 [Compound 197, 5-{2-[4-methoxy-2-(5-methoxyquinoline-8-sulfonamido)phenyl]ethynyl}pyridine-2-carboxylic acid] | 100 to 1000
COc1ccc(S(=O)(=O)Nc2ccc(F)cc2C#Cc2cnc(C(=O)O)c(C)c2)c2ncccc12 [Compound 311, 5-{2-[5-fluoro-2-(5-methoxyquinoline-8-sulfonamido)phenyl]ethynyl}-3-methylpyridine-2-carboxylic acid] | 100 to 1000
COC(=O)c1ccc(C#Cc2ccccc2NS(=O)(=O)c2ccccc2-c2ccccc2)cn1 [Compound 135, methyl 5-[2-(2-{[1,1′-biphenyl]-2-sulfonamido}phenyl)ethynyl]pyridine-2-carboxylate] | 100 to 1000
O=C(O)c1ccc(C#Cc2ccccc2NS(=O)(=O)c2ccc(C3=CCCCC3)cc2)cn1 [Compound 177, 5-(2-{2-[4-(cyclohex-1-en-1-yl)benzenesulfonamido]phenyl}-ethynyl)pyridine-2-carboxylic acid] | 100 to 1000
COc1ccc(S(=O)(=O)Nc2ccccc2C#Cc2ccc(C(=O)NC(C)C)nc2)c2ncccc12 [Compound 392, 5-[2-(5-Methoxy-quinoline-8-sulfonylamino)-phenylethynyl]-pyridine-2-carboxylic acid isopropylamide] | 100 to 1000
CC(=O)N(Cc1ccc2ccccc2n1)c1ccccc1C#Cc1ccc(C(=O)O)nc1 [Compound 121, 5-[2-(2-{N-[(quinolin-2-yl)methyl]acetamido}phenyl)ethynyl]-pyridine-2-carboxylic acid] | 100 to 1000
COc1ccc(S(=O)(=O)N(C)c2ccccc2C#Cc2cnc(C(=O)O)cc2C)c2ncccc12 [Compound 123, 4-methyl-5-{2-[2-(N-methyl5-methoxyquinoline-8-sulfonamido)phenyl]ethynyl}pyridine-2-carboxylic acid] | 1000 to 100000
O=C(O)c1ccc(C#Cc2ccccc2NS(=O)(=O)c2ccc3ccccc3c2)cc1O [Compound 5, 2-hydroxy-4-{2-[2-(naphthalene-2-sulfonamido)phenyl]ethynyl}benzoic acid] | 1000 to 100000
COc1cnc2cc(S(=O)(=O)Nc3ccccc3C#Cc3ccc(C(=O)O)cc3)ccc2n1 [Compound 82, 4-{2-[2-(2-methoxyquinoxaline-6-sulfonamido)phenyl]ethynyl}benzoic acid] | 1000 to 100000
Cc1ccc2c(C)ccnc2c1S(=O)(=O)Nc1ccccc1C#Cc1ccc(C(=O)O)nc1 [Compound 310, 5-{2-[2-(4,7-dimethylquinoline-8-sulfonamido)phenyl]ethynyl}pyridine-2-carboxylic acid] | 10 to 100
